Assay results reported in US20250382344A1, “Soluble GLP1/GIP/NPY2 Receptor Triple Agonists” (Boehringer Ingelheim International GmH, priority 2024, published 2025).
Like-named read-outs stand apart in the source and are kept apart here.

Legend:
[1] = Solubility in 0.1 M phosphate buffer at pH 7; assay type: physicochemical; conditions: 0.1 M phosphate buffer at pH 7, 10 mg/mL final peptide concentration, shaking 2 hours at room temperature, peptides as TFA-salts, measured sample pH 6.5-7.0
hGIPR = target: T1, hGIPR (Homo sapiens, UniProt P48546); assay: hGIPR CreLuc assay in 0.5% and 100% plasma (CHO CRE-luciferase reporter cells); assay type: cell-based; conditions: 0.5% human plasma
T1 construct: expressed in transfected cells; host or cells: CHO CRE-luciferase reporter cells
T1 sequence (P48546 22-466): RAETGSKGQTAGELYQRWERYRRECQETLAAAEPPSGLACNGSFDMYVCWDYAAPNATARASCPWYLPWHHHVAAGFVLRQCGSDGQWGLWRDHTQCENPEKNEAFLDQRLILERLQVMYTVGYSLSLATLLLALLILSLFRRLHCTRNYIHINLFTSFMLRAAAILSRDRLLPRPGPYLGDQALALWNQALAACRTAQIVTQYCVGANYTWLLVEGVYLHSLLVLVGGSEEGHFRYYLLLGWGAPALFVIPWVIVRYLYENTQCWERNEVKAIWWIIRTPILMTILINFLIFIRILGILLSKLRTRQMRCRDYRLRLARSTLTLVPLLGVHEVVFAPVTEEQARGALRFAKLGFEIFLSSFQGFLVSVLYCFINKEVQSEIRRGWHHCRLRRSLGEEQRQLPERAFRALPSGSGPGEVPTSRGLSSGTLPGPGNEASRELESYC
From the text: CHO and HEK-293 recombinant cell lines express a luciferase reporter gene under control of the CAMP responsive element (CRE). As a second recombinant protein the GLP-1 and NPY2 receptors were expressed in the reporter gene HEK cells, and the GIP receptor was expressed in the reporter gene CHO cells, respectively. Stimulation of these recombinant cells with an agonist leads to an increase of intracellular CAMP levels. In the presence of CAMP, the transcription factor CRE binding protein (CREB) binds to the CRE and to the CREB binding protein (CBP), which leads to transcription of the luciferase reporter gene. Peptides upon serial-dilution in 100% DMSO were transferred into 384-well assay plates with 5 μl pre-dispensed assay buffer (1×HBSS, 20 mM HEPES, pH7.4 supplemented with 0.5% human plasma) using acoustic dispensing on a Labcyte ECHO. Cryo-preserved transgenic reporter gene cells were thawed in assay buffer. 20 μl (10.000 cells/well) were added to the plate with the peptides and incubated for 4 hours at 37° C. in a humidified incubator. Following incubation, assay plates are equilibrated to room temperature, followed by addition of 25 μl of Bright-Glo™ Luciferase reagent, incubation at room temperature for 10 minutes and analysis of luminescence (Envision Reader). […] EC50 values were calculated by non-linear regression using sigmoid concentration-response with variable slope.
The same assays were run in the presence of 100% plasma with no additional buffer constituents.

Row | SMILES | solubility at 2 h [1] [µg/mL] | EC50 (hGIPR; read-out: hGIPR 0.5% hP) [nM] | solubility ([1]; read-out: Solubility) [µg/mL] | EC50 (hGIPR; hGIPR 0.5% hP (nM)) [nM]
1 | CC[C@H](C)[C@H](NC(=O)[C@H](CC(C)C)NC(=O)[C@H](Cc1c[nH]cn1)NC(=O)[C@H](CCCNC(=N)N)NC(=O)[C@@H](NC(=O)[C@H](Cc1ccccc1)NC(=O)[C@H](C)NC(=O)C(C)(C)NC(=O)[C@H](CCC(N)=O)NC(=O)[C@H](C)NC(=O)[C@H](CCC(N)=O)NC(=O)[C@H](CCCCN)NC(=O)[C@H](CCC(=O)O)NC(=O)[C@H](CC(C)C)NC(=O)C(C)(C)NC(=O)[C@@H](NC(=O)[C@H](CO)NC(=O)[C@H](CC(C)C)NC(=O)[C@H](CC(=O)O)NC(=O)[C@H](CO)NC(=O)[C@@H](NC(=O)[C@H](Cc1ccccc1)NC(=O)[C@@H](NC(=O)CNC(=O)[C@H](CCC(=O)O)NC(=O)C(C)(C)NC(=O)[C@@H](N)Cc1ccc(O)cc1)[C@@H](C)O)[C@@H](C)O)[C@@H](C)CC)C(C)C)C(=O)N[C@@H](CC(N)=O)C(=O)N[C@@H](CCCCNC(=O)CC[C@H](NC(=O)CC[C@H](NC(=O)CC[C@H](NC(=O)CC[C@H](NC(=O)CC[C@H](NC(=O)CC[C@H](NC(=O)CCCCCCCCCCCCCCCCCCC(=O)O)C(=O)O)C(=O)O)C(=O)O)C(=O)O)C(=O)O)C(=O)O)C(=O)NC(C)(C)C(=O)N[C@H](C(=O)N[C@@H](CCCNC(=N)N)C(=O)N[C@@H](CCC(N)=O)C(=O)N[C@@H](CCCNC(=N)N)C(=O)N[C@@H](Cc1ccc(O)cc1)C(N)=O)[C@@H](C)O [Compound 51, Y-Aib-E-G-T-F-T-S-D-L-S-I-Aib-L-E-K-Q-A-Q-Aib-A-F-V-R-H-L-I-N-K(1,3)-Aib-T-R-Q-R-Y-NH2.C20DA-gGlu-gGlu-gGlu-gGlu-gGlu-gGlu(1,2)] | 9300 | – | – | 0.5
2 | CC[C@H](C)[C@H](NC(=O)[C@H](CC(C)C)NC(=O)[C@H](Cc1c[nH]cn1)NC(=O)[C@H](CCCNC(=N)N)NC(=O)[C@@H](NC(=O)[C@H](Cc1ccccc1)NC(=O)[C@H](CCC(=O)O)NC(=O)C(C)(C)NC(=O)[C@H](CCC(N)=O)NC(=O)[C@H](C)NC(=O)[C@H](CCC(N)=O)NC(=O)[C@H](CCCCN)NC(=O)[C@H](CCC(=O)O)NC(=O)[C@H](CC(C)C)NC(=O)C(C)(C)NC(=O)[C@@H](NC(=O)[C@H](CO)NC(=O)[C@H](Cc1ccc(O)cc1)NC(=O)[C@H](CC(=O)O)NC(=O)[C@H](CO)NC(=O)[C@@H](NC(=O)[C@H](Cc1ccccc1)NC(=O)[C@@H](NC(=O)CNC(=O)[C@H](CCC(=O)O)NC(=O)C(C)(C)NC(=O)[C@@H](N)Cc1ccc(O)cc1)[C@@H](C)O)[C@@H](C)O)[C@@H](C)CC)C(C)C)C(=O)N[C@@H](CC(N)=O)C(=O)N[C@@H](CCCCNC(=O)[C@@H](N)CCCCNC(=O)CC[C@H](NC(=O)CC[C@H](NC(=O)CC[C@H](NC(=O)CC[C@H](NC(=O)CC[C@H](NC(=O)CC[C@H](NC(=O)CCCCCCCCCCCCCCCCCCC(=O)O)C(=O)O)C(=O)O)C(=O)O)C(=O)O)C(=O)O)C(=O)O)C(=O)NC(C)(C)C(=O)N[C@H](C(=O)N[C@@H](CCCNC(=N)N)C(=O)N[C@@H](CCC(N)=O)C(=O)N[C@@H](CCCNC(=N)N)C(=O)N[C@@H](Cc1ccc(O)cc1)C(N)=O)[C@@H](C)O [Compound 149, Y-Aib-E-G-T-F-T-S-D-Y-S-I-Aib-L-E-K-Q-A-Q-Aib-E-F-V-R-H-L-I-N-K(1,3)-Aib-T-R-Q-R-Y-NH2.C20DA-gGlu-gGlu-gGlu-gGlu-gGlu-gGlu-eLys(1,2)] | – | 0.6 | 4900 | –
3 | CC[C@H](C)[C@H](NC(=O)[C@H](CC(C)C)NC(=O)[C@H](Cc1c[nH]cn1)NC(=O)[C@H](CCCNC(=N)N)NC(=O)[C@@H](NC(=O)[C@H](Cc1ccccc1)NC(=O)[C@H](C)NC(=O)[C@H](C)NC(=O)[C@H](CCC(N)=O)NC(=O)[C@H](C)NC(=O)[C@H](CCC(N)=O)NC(=O)[C@H](CCCCN)NC(=O)[C@H](CCC(=O)O)NC(=O)[C@H](CC(C)C)NC(=O)C(C)(C)NC(=O)[C@@H](NC(=O)[C@H](CO)NC(=O)[C@H](Cc1ccc(O)cc1)NC(=O)[C@H](CC(=O)O)NC(=O)[C@H](CO)NC(=O)[C@@H](NC(=O)[C@H](Cc1ccccc1)NC(=O)[C@@H](NC(=O)CNC(=O)[C@H](CCC(=O)O)NC(=O)C(C)(C)NC(=O)[C@@H](N)Cc1ccc(O)cc1)[C@@H](C)O)[C@@H](C)O)[C@@H](C)CC)C(C)C)C(=O)N[C@@H](CC(N)=O)C(=O)N[C@@H](CCCCNC(=O)[C@@H](N)CCCCNC(=O)CC[C@H](NC(=O)CC[C@H](NC(=O)CC[C@H](NC(=O)CC[C@H](NC(=O)CC[C@H](NC(=O)CC[C@H](NC(=O)CCCCCCCCCCCCCCCCC(=O)O)C(=O)O)C(=O)O)C(=O)O)C(=O)O)C(=O)O)C(=O)O)C(=O)NC(C)(C)C(=O)N[C@H](C(=O)N[C@@H](CCCNC(=N)N)C(=O)N[C@@H](CCC(N)=O)C(=O)N[C@@H](CCCNC(=N)N)C(=O)N[C@@H](Cc1ccc(O)cc1)C(N)=O)[C@@H](C)O [Compound 61, Y-Aib-E-G-T-F-T-S-D-Y-S-I-Aib-L-E-K-Q-A-Q-A-A-F-V-R-H-L-I-N-K(1,3)-Aib-T-R-Q-R-Y-NH2.C18DA-gGlu-gGlu-gGlu-gGlu-gGlu-gGlu-eLys(1,2)] | 3700 | 0.4 | – | –

Continued by falling EC50 (hGIPR; read-out: hGIPR 0.5% hP), values first:

Row | solubility at 2 h [1] [µg/mL] | EC50 (hGIPR; read-out: hGIPR 0.5% hP) [nM] | solubility ([1]; read-out: Solubility) [µg/mL] | SMILES | EC50 (hGIPR; hGIPR 0.5% hP (nM)) [nM]
4 | 8900 | 0.7 | – | CC[C@H](C)[C@H](NC(=O)[C@H](CC(C)C)NC(=O)[C@H](Cc1c[nH]cn1)NC(=O)[C@H](CCCNC(=N)N)NC(=O)[C@@H](NC(=O)[C@H](Cc1ccccc1)NC(=O)[C@H](C)NC(=O)C(C)(C)NC(=O)[C@H](CCC(N)=O)NC(=O)[C@H](C)NC(=O)[C@H](CCC(N)=O)NC(=O)[C@H](CC(N)=O)NC(=O)[C@H](CCC(=O)O)NC(=O)[C@H](CC(C)C)NC(=O)C(C)(C)NC(=O)[C@@H](NC(=O)[C@H](CO)NC(=O)[C@H](Cc1ccc(O)cc1)NC(=O)[C@H](CC(=O)O)NC(=O)[C@H](CO)NC(=O)[C@@H](NC(=O)[C@H](Cc1ccccc1)NC(=O)[C@@H](NC(=O)CNC(=O)[C@H](CCC(=O)O)NC(=O)C(C)(C)NC(=O)[C@@H](N)Cc1ccc(O)cc1)[C@@H](C)O)[C@@H](C)O)[C@@H](C)CC)C(C)C)C(=O)N[C@@H](CC(N)=O)C(=O)N[C@@H](CCCCNC(=O)[C@@H](N)CCCCNC(=O)CC[C@H](NC(=O)CC[C@H](NC(=O)CC[C@H](NC(=O)CC[C@H](NC(=O)CC[C@H](NC(=O)CC[C@H](NC(=O)CCCCCCCCCCCCCCCCC(=O)O)C(=O)O)C(=O)O)C(=O)O)C(=O)O)C(=O)O)C(=O)O)C(=O)NC(C)(C)C(=O)N[C@H](C(=O)N[C@@H](CCCNC(=N)N)C(=O)N[C@@H](CCC(N)=O)C(=O)N[C@@H](CCCNC(=N)N)C(=O)N[C@@H](Cc1ccc(O)cc1)C(N)=O)[C@@H](C)O [Compound 6, Y-Aib-E-G-T-F-T-S-D-Y-S-I-Aib-L-E-N-Q-A-Q-Aib-A-F-V-R-H-L-I-N-K(1,3)-Aib-T-R-Q-R-Y-NH2.C18DA-gGlu-gGlu-gGlu-gGlu-gGlu-gGlu-eLys(1,2)] | –
5 | 3900 | 0.7 | – | CC[C@H](C)[C@H](NC(=O)[C@H](CC(C)C)NC(=O)[C@H](Cc1c[nH]cn1)NC(=O)[C@H](CCCNC(=N)N)NC(=O)[C@@H](NC(=O)[C@H](Cc1ccccc1)NC(=O)[C@H](C)NC(=O)C(C)(C)NC(=O)[C@H](CCC(N)=O)NC(=O)[C@H](C)NC(=O)[C@H](CCC(N)=O)NC(=O)[C@H](CC(C)C)NC(=O)[C@H](CCC(=O)O)NC(=O)[C@H](CC(C)C)NC(=O)C(C)(C)NC(=O)[C@@H](NC(=O)[C@H](CO)NC(=O)[C@H](Cc1ccc(O)cc1)NC(=O)[C@H](CC(=O)O)NC(=O)[C@H](CO)NC(=O)[C@@H](NC(=O)[C@H](Cc1ccccc1)NC(=O)[C@@H](NC(=O)CNC(=O)[C@H](CCC(=O)O)NC(=O)C(C)(C)NC(=O)[C@@H](N)Cc1ccc(O)cc1)[C@@H](C)O)[C@@H](C)O)[C@@H](C)CC)C(C)C)C(=O)N[C@@H](CC(N)=O)C(=O)N[C@@H](CCCCNC(=O)[C@@H](N)CCCCNC(=O)CC[C@H](NC(=O)CC[C@H](NC(=O)CC[C@H](NC(=O)CC[C@H](NC(=O)CC[C@H](NC(=O)CC[C@H](NC(=O)CCCCCCCCCCCCCCCCC(=O)O)C(=O)O)C(=O)O)C(=O)O)C(=O)O)C(=O)O)C(=O)O)C(=O)NC(C)(C)C(=O)N[C@H](C(=O)N[C@@H](CCCNC(=N)N)C(=O)N[C@@H](CCC(N)=O)C(=O)N[C@@H](CCCNC(=N)N)C(=O)N[C@@H](Cc1ccc(O)cc1)C(N)=O)[C@@H](C)O [Compound 65, Y-Aib-E-G-T-F-T-S-D-Y-S-I-Aib-L-E-L-Q-A-Q-Aib-A-F-V-R-H-L-I-N-K(1,3)-Aib-T-R-Q-R-Y-NH2.C18DA-gGlu-gGlu-gGlu-gGlu-gGlu-gGlu-eLys(1,2)] | –
